# Measurements reported in ChEMBL document CHEMBL1159002, “Westiellamide, a bistratamide-related cyclic peptide from the blue-green alga Westiellopsis prolifica” (J Nat Prod, 1992).
# The source made the active and inactive calls. The rule behind the calls is not given here.
# Tests used:
# Format in all cases: functional, cell-based
# L1210 = assay: Cytotoxicity against mouse L1210 cells by agar disk diffusion assay
# KB = assay: Cytotoxicity against human KB cells at 2 ug/ml
# LoVo = assay: Cytotoxicity against human LoVo cells at 2 ug/ml
compound,measurement,setting,value
CC(C)[C@@H]1NC(=O)[C@H]2N=C(O[C@@H]2C)[C@H](C(C)C)NC(=O)[C@H]2N=C(O[C@@H]2C)[C@H](C(C)C)NC(=O)[C@H]2N=C1O[C@@H]2C,Activity,L1210,inactive
same,Activity,KB,Active
same,Activity,LoVo,Active
